Source: patent US20030070184A1, “LIGANDS FOR DISCOIDIN DOMAIN RECEPTOR TYROSINE KINASES AND COMPLEXES THEREOF” (priority 1999, published 2003)
Each block holds one molecule with its values, some of them ahead of it. Where a SMILES comes first, the peptide text is derived from it. [ ]: non-standard residue; d: D form. pY = N[C@@H](Cc1ccc(OP(=O)(O)O)cc1)C(=O)O

What was measured:
[1] = test system: MMP-1; experiment: MMP-1 expression in HT 1080 cells (Western blot of conditioned media); type: cell-based, human; details: collagen type I 10 μg/ml, or TPA
Method: The full length cDNA of DDR2 was stabilely expressed in HT 1080 cells using a retroviral expression construct (pLXSN). Neomycin resistant clones were tested for DDR2 expression. Parental and DDR2 overexpressing cells were cultivated in serum free medium and stimulated with 10 μg/ml collagen type I for various periods of time. The conditioned medium was 20-fold concentrated and analyzed for the presence of MMP-1 by Western blotting with the monoclonal antibody 41-IE5 (Oncogene Research Products; Cambridge, Mass.).

[2] = target: T1, Shc PTB domain binding to DDR1b (Homo sapiens, UniProt P29353); experiment: GST-Shc PTB pull-down of tyrosine phosphorylated DDR1b from 293 lysates, competition by phosphopeptide; details: lysates of transfected, orthovanadate-treated 293 cells
T1 construct: the PTB domain fusion construct comprises amino acids 1-225 of human p52 Shc; made in house; host or cells: GST-Shc PTB: E. coli; DDR1b: lysate of transiently transfected, orthovanadate-treated 293 cells
T1 sequence (P29353 1-225 isoform P29353-2): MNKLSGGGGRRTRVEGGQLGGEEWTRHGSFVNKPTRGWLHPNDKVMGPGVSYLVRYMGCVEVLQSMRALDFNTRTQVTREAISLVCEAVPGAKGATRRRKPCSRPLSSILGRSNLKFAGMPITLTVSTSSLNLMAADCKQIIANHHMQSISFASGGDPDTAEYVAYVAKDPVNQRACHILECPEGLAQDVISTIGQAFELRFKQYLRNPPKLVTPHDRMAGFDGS
Method: The results presented above raise the possibility that the Shc PTB domain binds to phosphorylated Tyr 513, which lies within the motif LLSNPAY in the DDR1b juxtamembrane insert. To test whether phosphorylation of Tyr 513 might form a PTB-binding site, a 14-mer phosphopeptide with the sequence ALLLSNPApYRLLLA was synthesized, corresponding to residues 505-518 of DDR1b. The ability of this phosphopeptide to bind the Shc PTB domain was analysed using a competition assay, in which the capacity of GST-Shc PTB fusion protein to bind tyrosine phosphorylated DDR1b from lysates of transfected 293 cells was measured in the presence of increasing amounts of the Tyr 513 phosphopeptide. […] To quantitate this interaction more precisely, surface plasmon resonance technology was used, in which soluble DDR1b phosphopeptide was employed to inhibit binding of the GST-Shc PTB fusion protein to a polyomavirus middle T antigen phosphopeptide, immobilized on a biosensor chip (21).
FIGS. 2A and 2B. Phosphorylation of Tyr 513 in the MCK10b (DDR1b) juxtamembrane insert forms a Shc PTB-binding site. […] Bound protein was detected by immunoblotting with antibodies to MCK10. […]

[3] = target: T2, Shc PTB domain (Homo sapiens, UniProt P29353); experiment: Surface plasmon resonance competition: GST-Shc PTB domain binding to immobilized middle T antigen phosphopeptide; details: BIAcore, soluble competing phosphopeptide; read-out: IC50, inhibition of binding of the Shc PTB domain to the middle T antigen phosphopeptide
T2 construct: the PTB domain fusion construct comprises amino acids 1-225 of human p52 Shc; made in house; host or cells: E. coli
T2 sequence (P29353 1-225 isoform P29353-2): T1 sequence (P29353 1-225 isoform P29353-2)
Method: Surface plasmon resonance—experiments were done with a BIAcore instrument (Pharmacia). A phosphopeptide corresponding to the NPXY sequence in the polyomavirus middle T antigen (mT) (LSLLSNPTpYSVNSK) was absorbed to the surface of a biosensor chip. Binding of soluble GST-Shc PTB domain fusion protein to the mT peptide was measured in the presence or absence of competing soluble phosphopeptides based on the sequences around Tyr 513 of DDR1b or Tyr 490 of the NGFR (HIIENPQpYFSD) (21).
Experiments were done with a BIAcore instrument (Pharmacia). A phosphopeptide corresponding to the NPXY sequence in the polyomavirus middle T antigen (LSLLSNPTpYSVMRSK) was absorbed to the surface of a biosensor chip. Binding of soluble GST-Shc PTB domain fusion protein to the middle T peptide was measured in presence or absence of competing soluble phosphopeptides based on the sequences around tyrosine 513 of DDR1b (ALLLSNPApYRLLLA) or tyrosine 490 of the NGF receptor (HIIENPQpYFSD).

[4] = test system: MAPK; experiment: MAPK activation (mobility shift) in T-47D or HT 1080-DDR2 cells; type: cell-based, human; details: T-47D or HT 1080 overexpressing DDR2; PDGF or EGF 5 min, collagen type I overnight
Method: T-47D or HT 1080 overexpressing DDR2 cells were stimulated with PDGF or EGF for 5 min, with collagen type I overnight and with a combination of EGF/collagen or PDGF/collagen. […] Furthermore, activation of MAPK by EGF is not influenced by simultaneous activation of DDR receptors.

[5] = target: T3, DDR1b (Homo sapiens, UniProt Q08345); experiment: Tyrosine phosphorylation of endogenous DDR1b in carcinoma cells (T-47D; A431), immunoprecipitation and anti-phosphotyrosine blot; type: cell-based; details: PDGF or EGF 5 min, collagen type I overnight
T3 construct: endogenous in cells; host or cells: T-47D human mammary carcinoma cells (A431 also named)
T3 sequence (Q08345 19-913): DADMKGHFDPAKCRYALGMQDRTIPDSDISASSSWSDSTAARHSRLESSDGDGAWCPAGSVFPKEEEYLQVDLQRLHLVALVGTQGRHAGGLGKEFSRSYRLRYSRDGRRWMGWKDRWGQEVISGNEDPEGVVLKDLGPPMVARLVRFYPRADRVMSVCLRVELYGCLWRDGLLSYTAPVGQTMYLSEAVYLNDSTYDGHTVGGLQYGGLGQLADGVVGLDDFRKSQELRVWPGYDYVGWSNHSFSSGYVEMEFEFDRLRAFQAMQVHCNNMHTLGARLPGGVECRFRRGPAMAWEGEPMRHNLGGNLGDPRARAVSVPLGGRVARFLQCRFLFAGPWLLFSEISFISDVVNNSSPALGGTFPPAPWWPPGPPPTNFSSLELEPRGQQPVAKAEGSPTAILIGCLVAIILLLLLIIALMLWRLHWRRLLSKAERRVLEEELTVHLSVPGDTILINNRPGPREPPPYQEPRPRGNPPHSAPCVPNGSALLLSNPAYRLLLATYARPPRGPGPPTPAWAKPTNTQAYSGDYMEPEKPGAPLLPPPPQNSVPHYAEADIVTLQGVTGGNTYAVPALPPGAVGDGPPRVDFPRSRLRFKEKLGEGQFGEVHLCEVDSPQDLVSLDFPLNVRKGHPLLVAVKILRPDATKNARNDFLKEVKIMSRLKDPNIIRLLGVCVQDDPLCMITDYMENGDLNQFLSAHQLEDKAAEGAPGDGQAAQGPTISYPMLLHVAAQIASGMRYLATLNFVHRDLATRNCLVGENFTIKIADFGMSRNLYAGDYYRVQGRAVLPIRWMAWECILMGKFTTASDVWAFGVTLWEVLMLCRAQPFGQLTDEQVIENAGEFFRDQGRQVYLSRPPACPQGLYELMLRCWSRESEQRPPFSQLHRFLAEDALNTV
Description: To investigate the effects of collagen on cells that express endogenous DDR tyrosine kinases, the mammary carcinoma cell line T-47D was employed. Previous results have shown that DDR1 is highly expressed in human carcinoma cell lines, in particular, the breast cancer cell lines BT-20, MDA-MB-175 and T-47D (1) (Perez et al., 1996). […] The time course of endogenous DDR1b tyrosine phosphorylation in T-47D cells was even slower than in 293 cells, with maximal activation being achieved only after stimulation for 18 hours.
To further investigate the role of different types of collagen in the activation of DDR1 and DDR2, collagen types I, II, III and V purified from human placenta and collagen type II from bovine tracheal cartilage were obtained. To test their ability to induce receptor tyrosine phosphorylation, 293 cells overexpressing DDR1 or DDR2 were employed. […] The various types of collagen were also tested for their ability to stimulate tyrosine phosphorylation of endogenous DDR1b present in T-47D cells. For this purpose, DDR1b was immunoprecipitated from lysates of stimulated T-47D cells and analyzed by Western blotting with anti-phosphotyrosine antibodies. […] As previously shown, DDR1 tyrosine phosphorylation could also be activated by treating cells with 1 mM orthovanadate, an inhibitor of tyrosine phosphatases. Furthermore, gelatin which contains heat denatured collagen was tested for its capacity to induce DDR1b tyrosine phosphorylation.
Integrins of the type α1β1 and α2β1 have long been known to be receptors for collagen. Therefore, tests were conducted to determine if these integrins are somehow involved in the activation of DDR1b. The mammary carcinoma cell line T-47D, which endogenously expresses the b-isoform of DDR1, was used. Monoclonal antibodies directed against the extracellular domains of integrins can block binding to collagen and therefore signaling of integrins. T-47D cells were treated with antibody A2-IIE10 against α2-integrin and antibody DE9 against β1-integrin (both from Upstate Biotechnology) in the absence or presence of 10 μg/ml collagen type I overnight. DDR1b or Shc were immunoprecipitated from cellular lysates and analyzed by Western blotting with antiphosphotyrosine antibody.
DDR1b and DDR2 were transfected into 293 cells and were stimulated with 10 µg/ml mouse collagen type I for different periods of time. (FIG. 9A and FIG. 9B) Total cellular lysates were probed with antiphosphotyrosine antibody. Maximal activation is seen 90 min after stimulation of DDR1b (FIG. 9A) and DDR2 (FIG. 9B). (FIG. 9C) Human mammary carcinoma T-47D cells were cultivated on 10 cm dishes to confluence and starved in 0.5% serum overnight. Cells were stimulated with collagen type I for various periods of time and lysed. DDR1b was immunoprecipitated from the lysates and analyzed by Western blotting with antiphosphotyrosine antibody. Maximal phosphorylation of DDR1b is seen after stimulation for 18 h. An unidentified, tyrosine phosphorylated protein with an apparent molecular weight of 115 kDa is copurified in the immunoprecipitations. […] Prolonged stimulation with collagen increases the processing of DDR1b in T-47D cells, indicated by an additional 62 kDa band. (FIGS. 9E and 9F) DDR1b was immunoprecipitated from overexpressing 293 cells (E) and T-47D (FIG. 9F) cells and subjected to an in vitro kinase reaction. The incorporation of [^32P]-phosphate is monitored by SDS-PAGE followed by autoradiograpy.

Molecule: CCCCCCCCCCCCCC(=O)O[C@@H]1[C@@H](C)[C@@]2(O)[C@@H](C=C(CO)C[C@]3(O)C(=O)C(C)=C[C@@H]23)[C@@H]2C(C)(C)[C@]12OC(C)=O [TPA, phorbol 12-myristate 13-acetate]
expression of MMP-1 in HT 1080 cells overexpressing DDR2 ([1]; 4 days): induced | expression of MMP-1 in parental HT 1080 cells [1]: induced

phosphopeptide concentration for full inhibition of Shc PTB binding to DDR1b [2]: 2 µM | phosphopeptide concentration that inhibited binding of the Shc PTB domain to DDR1b [2]: 100 nM | IC50 [3]: ~800 nM
Molecule: CC(C)C[C@H](NC(=O)[C@H](C)N)C(=O)N[C@@H](CC(C)C)C(=O)N[C@@H](CC(C)C)C(=O)N[C@@H](CO)C(=O)N[C@@H](CC(N)=O)C(=O)N1CCC[C@H]1C(=O)N[C@@H](C)C(=O)N[C@@H](Cc1ccc(OP(=O)(O)O)cc1)C(=O)N[C@@H](CCCNC(=N)N)C(=O)N[C@@H](CC(C)C)C(=O)N[C@@H](CC(C)C)C(=O)N[C@@H](CC(C)C)C(=O)N[C@@H](C)C(=O)O [DDR1b phosphopeptide, ALLLSNPApYRLLLA] (H-ALLLSNPA[pY]RLLLA-OH; N-terminus and C-terminus assumed)

activation of DDR1b in T-47D cells [5]: not
Molecule: PDGF [reference compound]
MAPK activation [4]: not
